# Data from PMC8809056 (Science (New York, N.y.), 2021).
# Test system: SARS-CoV-2 (nCoV/Washington/1/2020)
# Assay: microbe, parasite or virus in culture
# Type: cell-based
# Conditions: not given
row,Structure (SMILES),Inhibition of SARS-CoV-2 infection when added after infection
1,Cc1ccc(NC(=O)c2ccc(CN3CCN(C)CC3)cc2)cc1Nc1nc(-c2cccnc2)cs1 [Masitinib],effective in inhibiting SARS-CoV-2 infection

# Same assay, conditions: A549-ACE2 cells
row,Structure (SMILES),Inhibition of SARS-CoV-2 infection (in words)
1,Cc1ccc(NC(=O)c2ccc(CN3CCNCC3)cc2)cc1Nc1nc(-c2cccnc2)cs1 [AB3280],maintains its antiviral activity
2,C[C@@H]1[C@H](O)[C@@H](C)/C=C/C=C/C=C/C=C/C=C/C=C/C=C/[C@H](O[C@@H]2O[C@H](C)[C@@H](O)[C@H](N)[C@@H]2O)C[C@@H]2O[C@](O)(C[C@@H](O)C[C@@H](O)[C@H](O)CC[C@@H](O)C[C@@H](O)CC(=O)O[C@H]1C)C[C@H](O)[C@H]2C(=O)O [Amphotericin B],did not inhibit SARS-CoV-2 infection
3,COC(=O)N[C@H](C(=O)N1CCC[C@H]1c1nc(-c2ccc3c(c2)O[C@@H](c2ccccc2)n2c-3cc3cc(-c4c[nH]c([C@@H]5CCCN5C(=O)[C@@H](NC(=O)OC)C(C)C)n4)ccc32)c[nH]1)C(C)C [Elbasvir],did not inhibit SARS-CoV-2 infection

# Same assay, conditions: Severe acute respiratory syndrome coronavirus 2, A549-ACE2; read-out: EC50 against SARS-CoV-2 infection
row,Structure (SMILES),EC50
1,CN1CCCC(n2nc(Cc3ccc(Cl)cc3)c3ccccc3c2=O)CC1 (stereo not drawn) [Azelastine],2400 nM
2,Cc1ccc(NC(=O)c2ccc(CN3CC[C@H](N(C)C)C3)c(C(F)(F)F)c2)cc1Nc1nccc(-c2cncnc2)n1 [Bafetinib],2200 nM
3,COc1ccc2cc1Oc1ccc(cc1)C[C@H]1c3c(cc4c(c3Oc3cc5c(cc3OC)CCN(C)[C@@H]5C2)OCO4)CCN1C [Cepharanthine],100 nM
4,OCCN1CCN(CCC=C2c3ccccc3Sc3ccc(C(F)(F)F)cc32)CC1 [Flupenthixol],760 nM
5,CS(=O)(=O)CCNCc1ccc(-c2ccc3ncnc(Nc4ccc(OCc5cccc(F)c5)c(Cl)c4)c3c2)o1 [Lapatinib],1600 nM
6,CCC(CC)COC(=O)[C@H](C)N[P@](=O)(OC[C@H]1O[C@@](C#N)(c2ccc3c(N)ncnn23)[C@H](O)[C@@H]1O)Oc1ccccc1 [Remdesivir],720 nM
7,CC(CN(C)C)CN1c2ccccc2CCc2ccccc21 (stereo not drawn) [Trimipramine],1500 nM

# Test system: SARS-CoV-2 wild-type, B.1.1.7, B.1.351 and P.1
# Assay: not given
# Type: cell-based
# Conditions: not given
row,Structure (SMILES),Viral progeny production
1,Cc1ccc(NC(=O)c2ccc(CN3CCN(C)CC3)cc2)cc1Nc1nc(-c2cccnc2)cs1 [Masitinib],dramatically reduced viral progeny production
